Experimental data published in the supplement of paper PMC4862054.

Columns and labels:
Settings in all cases: 72 h
CAL-51 = test system: CAL-51
Description: (§1)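 Drug sensitivity and resistance testing (DSRT) of breast cancer cell lines in 384-well plates, 5 concentrations in 10-fold dilutions over a compound-specific 10,000-fold range. After 72 h, cytotoxicity was read by CellTox Green fluorescence and viability by CellTiter-Glo luminescence (multiplexed), normalised to DMSO and benzethonium chloride controls. EC50 is the inflection point of the fitted dose-response curve (bottom asymptote free, so it can be relative for partial curves) and is censored at the highest tested concentration. Rows with DSS 0 (no meaningful response) were excluded.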

MDA-MB-436 = test system: MDA-MB-436
Description: as §1

DU-4475 [1] = test system: DU-4475
Description: as §1

MDA-MB-468 = test system: MDA-MB-468
Description: as §1

HCC1599 [2] = test system: HCC1599
Description: as §1

MFM-223 = test system: MFM-223
In short: (§2)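 Two sequential readouts followed a 72 h incubation of breast cancer cell lines with compound at 5 concentrations in 10-fold steps over a compound-specific 10,000-fold range: CellTox Green fluorescence (485/520 nm) for cell death, then CellTiter-Glo luminescence, after 10 min at room temperature, for viability. Each plate was normalised to 0.1 % DMSO and a positive kill control. Dose-response curves were fitted for EC50, censored at the top concentration.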

HCC1143 = test system: HCC1143
In short: as §2

DU-4475 [3] = test system: DU-4475; remark: listed apart in the source
In short: as §2

HDQ-P1 = test system: HDQ-P1
In short: as §2

HCC1599 [4] = test system: HCC1599; remark: listed apart in the source
In short: as §2

- EC50, CellTiter-Glo (HCC1143): 845 nM
- EC50, CellTiter-Glo (HCC1599 [4]): 365 nM
Compound: NS(=O)(=O)OC[C@@H]1C[C@@H](n2ccc3c(N[C@H]4CCc5ccccc54)ncnc32)C[C@@H]1O [Pevonedistat]
- EC50, CellTox Green (CAL-51): 82.6 nM
- EC50, CellTox Green (MDA-MB-436): 1510 nM
- EC50, CellTox Green (DU-4475 [1]): 327 nM
- EC50, CellTox Green (MDA-MB-468): 436 nM
- EC50, CellTox Green (HCC1599 [2]): 1840 nM
- EC50, CellTiter-Glo (MFM-223): 155 nM
- EC50, CellTiter-Glo (DU-4475 [3]): 137 nM
- EC50, CellTiter-Glo (HDQ-P1): 1560 nM
